Like-named read-outs stand apart in the source and are kept apart here.

One experiment has as its target T1, CFTR ΔF508 (Homo sapiens, UniProt P13569, DEL508-508).
T1 construct: bronchial epithelial cells isolated from CF patients homozygous for the CFTR ΔF508 mutation; McGill University; Asterand; University of North Carolina hAEC-CF; host or cells: primary human bronchial epithelial cells from CF patients homozygous for ΔF508
As to the kind of experiment: Chronic TECC assay, primary bronchial epithelial cells from CF patients homozygous for CFTR ΔF508. The experiment is classed as cell-based. As to conditions: for activity at 3 µM: read-out: % Activity at 3 μM (AUC**); for EC50: chronic TECC, with co-corrector and potentiator, AUC = full area under the curve upon forskolin stimulation. As for the experimental part:
The TECC (Tranepithelial Clamp Circuit, EP-design) assay measures the functionality of the cystic fibrosis Transmembrane Conductance regulator (CFTR) by measuring the short circuit current (Isc) generated over the basolateral and apical membrane of lung epithelial cells. In TECC the transepithelial potential PD and transepithelial resistance (Rt) are measured in an open circuit and transformed to Ieq using Ohm's law. 24 Wells can be measured simultaneously allowing a higher throughput compared to Ussing chambers.
For this purpose, bronchial epithelial cells isolated from CF patients homozygous for the CFTR ΔF508 mutation (hAEC-CF, Epithelix, Geneva, Switzerland; McGill University, Montreal, Qc; Asterand, Detroit, Mich.; University of North Carolina, Chapel Hill, N.C.) are plated on type IV collagen-coated Transwell® supports (Costar).
For electrophysiological recording of the “chronic” experiments, the human airway epithelia are mounted in the TECC heating plate for electrophysiological measurement and kept at 37° C. The epithelia are bathed in a NaCl-Ringer solution (120 mM NaCl, 25 mM NaHCO3, 1.2 mM CaCl2), 1.2 mM MgCl2, 0.8 mM KH2PO4, 0.8 mM K2HP04, pH 7.4, 5 mM glucose) on both the basolateral and apical sides. Test compounds (corrector, co-corrector, 4-[(2R,4R)-4-({[1-(2,2-difluoro-1,3-benzodioxol-5-yl)cyclopropyl]carbonyl}amino)-7-(difluoromethoxy)-3,4-dihydro-2H-chromen-2-yl]benzoic acid, and potentiator, N-(3-carbamoyl-5,5,7,7-tetramethyl-4,7-dihydro-5H-thieno[2,3-c]pyran-2-yl)-1H-pyrazole-5-carboxamide), are re-added to the recording solution prior to measurement. […] Apical amiloride is used to inhibit the endogenous ENaC currents while forskolin is applied on both apical and basolateral side to stimulate CFTR. Measurements are done during a 20 minute timeframe with recordings every 2 minutes. The increase in Ieq is used as a measure for the increased CFTR activity, EC50 values can be generated by measuring impact of different concentrations of compound on Ieq on primary cells, for this purpose each transwell is treated with a different compound concentration. […] Raw data were normalized to percentage activity values using the equation: 100×(Sample−Negative control)/(Positive control−Negative Control).

A further experiment has as its target T2, ΔF508-CFTR (Homo sapiens, UniProt P13569, DEL508-508).
T2 construct: host or cells: CFBE41o- cells, doxycycline-inducible expression
As to the kind of experiment: CFTR cell surface levels using HRP-tagged ΔF508-CFTR expressing CFBE cells, intrinsic corrector capacity. Type of experiment: cell-based. The arrangement: % Activation: concentration or dose not given beside the values. As to conditions: HRP-tagged ΔF508-CFTR expressing CFBE41o- cells; compounds alone (intrinsic corrector capacity); 20 hours at 33° C. The source says: Measuring CFTR Cell Surface Levels Using HRP-Tagged ΔF508-CFTR Expressing CFBE Cells
The HRP-tagged ΔF508-CFTR cell assay measures the expression of CFTR-ΔF508 at the plasma membrane. CFTR-ΔF508 has a folding defect leading to absence of protein at the plasma membrane. This assay is used to evaluate the capacity of compounds to increase the expression of CFTR-ΔF508 at the plasma membrane. […] When HRP-tagged ΔF508-CFTR is present at the plasma membrane, the HRP enzyme activity can be measured. The amount of CFTR-ΔF508 that can be rescued to the plasma membrane is correlated with the amount of functional enzyme that can be measured.
There are several ways to measure the capacity of compounds to rescue CFTR-ΔF508 to the plasma membrane; either compounds are evaluated on their own and the impact on plasma membrane levels is measured or compounds are evaluated in combination with a co-corrector, i.e. a compound that rescues CFTR-ΔF508 to the plasma membrane but rescue can be enhanced by addition of compounds due to a complementary mode of action.
Activity of Compounds for their Intrinsic Corrector Capacity:
On day four, L test compounds diluted in PBS were added to the plates at a final DMSO concentration of 0.1%. All compound plates contained negative controls (DMSO) and positive controls ([…] corrector, 3-[(2R,4R)-4-({[1-(2,2-difluoro-1,3-benzodioxol-5-yl)cyclopropyl]carbonyl}amino)-7-methoxy-3,4-dihydro-2H-chromen-2-yl]benzoic acid). Cell plates were incubated at 33° C., 5% CO2 for 20 hours. […] After incubation for 15 minutes in the dark, chemiluminescence was measured using a plate reader (EnVision®, Perkin Elmer). Raw data were normalized to percentage activity values using the equation: 100×(Sample−Negative control)/(Positive control−Negative Control).

Where [1] appears, read: read-out: % Activity at 1 μM (AUC**).

T2 sequence (P13569 with tags, fused parts or gaps DEL508-508): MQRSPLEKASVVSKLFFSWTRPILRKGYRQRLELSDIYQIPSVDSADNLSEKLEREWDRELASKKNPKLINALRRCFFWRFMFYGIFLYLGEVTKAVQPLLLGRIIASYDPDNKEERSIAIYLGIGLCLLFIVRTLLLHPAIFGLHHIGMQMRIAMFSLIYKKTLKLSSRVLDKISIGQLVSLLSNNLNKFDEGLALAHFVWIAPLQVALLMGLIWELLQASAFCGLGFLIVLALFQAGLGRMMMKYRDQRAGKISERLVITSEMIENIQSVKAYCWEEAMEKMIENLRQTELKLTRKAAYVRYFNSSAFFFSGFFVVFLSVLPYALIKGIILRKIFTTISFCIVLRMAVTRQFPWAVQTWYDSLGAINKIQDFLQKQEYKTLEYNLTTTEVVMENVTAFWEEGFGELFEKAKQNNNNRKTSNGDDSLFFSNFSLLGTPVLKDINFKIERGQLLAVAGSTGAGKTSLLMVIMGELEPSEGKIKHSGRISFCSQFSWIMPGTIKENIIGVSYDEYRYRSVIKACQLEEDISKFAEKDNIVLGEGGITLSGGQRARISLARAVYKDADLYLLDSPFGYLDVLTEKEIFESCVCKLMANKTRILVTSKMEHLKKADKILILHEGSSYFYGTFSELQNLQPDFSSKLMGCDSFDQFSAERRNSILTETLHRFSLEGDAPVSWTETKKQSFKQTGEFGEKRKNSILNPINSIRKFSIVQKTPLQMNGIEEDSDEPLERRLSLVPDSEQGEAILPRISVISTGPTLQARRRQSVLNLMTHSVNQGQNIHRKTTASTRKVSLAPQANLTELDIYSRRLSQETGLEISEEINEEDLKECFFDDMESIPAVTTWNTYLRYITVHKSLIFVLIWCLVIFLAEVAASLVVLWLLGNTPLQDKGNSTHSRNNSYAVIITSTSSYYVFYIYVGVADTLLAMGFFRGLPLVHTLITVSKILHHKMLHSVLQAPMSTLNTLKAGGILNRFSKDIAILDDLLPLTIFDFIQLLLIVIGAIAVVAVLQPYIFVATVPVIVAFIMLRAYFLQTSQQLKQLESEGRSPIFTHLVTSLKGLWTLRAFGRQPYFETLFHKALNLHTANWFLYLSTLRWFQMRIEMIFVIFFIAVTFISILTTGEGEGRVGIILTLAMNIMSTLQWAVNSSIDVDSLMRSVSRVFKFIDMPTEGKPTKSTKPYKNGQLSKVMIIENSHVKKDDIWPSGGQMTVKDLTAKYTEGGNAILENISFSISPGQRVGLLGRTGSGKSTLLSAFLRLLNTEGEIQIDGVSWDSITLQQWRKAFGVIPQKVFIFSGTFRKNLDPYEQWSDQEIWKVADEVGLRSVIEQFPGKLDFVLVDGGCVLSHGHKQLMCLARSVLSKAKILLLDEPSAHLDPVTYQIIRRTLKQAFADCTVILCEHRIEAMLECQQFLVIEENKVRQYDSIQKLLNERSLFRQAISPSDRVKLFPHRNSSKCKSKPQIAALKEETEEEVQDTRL
T1 sequence (P13569 with tags, fused parts or gaps DEL508-508): as above

With `CNS(=O)(=O)NC(=O)c1cc(N2CCC(N3CCOCC3)CC2)c2c(C3CCC3)nn(-c3ccc(F)cc3)c2n1` [Compound 517, 3-cyclobutyl-1-(4-fluorophenyl)-N-(methylsulfamoyl)-4-[4-(morpholin-4-yl)piperidin-1-yl]-H-pyrazolo[3,4-b]pyridine-6-carboxamide], at CFTR ΔF508, the activity at 3 µM was determined as 309%.

By EC50 is commonly meant the concentration needed to bring the measured effect to its halfway point. With `CC(C)N1CCC(c2cc(C(=O)NS(=O)(=O)N(C)C)nc3c2c(C2CCC2)nn3-c2ccc(F)cc2)CC1` [compound 598], the EC50 on ΔF508-CFTR was 10000 nM.

In the case of `COCC1CN(C2CCN(c3cc(C(=O)NS(=O)(=O)N(C)C)nc4c3c(C3CCC3)nn4-c3ccc(F)cc3)CC2)CCO1` (stereo not shown) [Compound 379, 3-cyclobutyl-N-(dimethylsulfamoyl)-1-(4-fluorophenyl)-4-{4-[2-(methoxymethyl)morpholin-4-yl]piperidin-1-yl}-1H-pyrazolo[3,4-b]pyridine-6-carboxamide], the activity at 1 µM at CFTR ΔF508 (setting [1]) amounted to 370%.

Turning to `CS(=O)(=O)NC(=O)c1cc(N2CCC(N3CCOCC3)CC2)c2c(C3CCC3)nn(-c3ccccc3)c2n1` [Compound 328, 3-cyclobutyl-N-(methanesulfonyl)-4-[4-(morpholin-4-yl)piperidin-1-yl]-1-phenyl-1H-pyrazolo[3,4-b]pyridine-6-carboxamide], the activity at 1 µM at CFTR ΔF508 (setting [1]) was 532%. Moreover, on CFTR ΔF508, the activity at 3 µM was 423%.

For the compound `CS(=O)(=O)NC(=O)c1cc(N2CC3(CCOCC3)C2)c2c(C3CCC3)nn(-c3ccccc3)c2n1` [compound 204], on ΔF508-CFTR, the EC50 was found to be 978 nM.

Take `O=C(NS(=O)(=O)N1CCOCC1)c1cc(N2CCC(N3CCOCC3)CC2)c2c(C3CCC3)nn(-c3ccccc3)c2n1` [Compound 383, 3-cyclobutyl-N-(morpholine-4-sulfonyl)-4-[4-(morpholin-4-yl)piperidin-1-yl]-1-phenyl-1H-pyrazolo[3,4-b]pyridine-6-carboxamide]: the activity at 3 µM on CFTR ΔF508 was 299%.

Regarding `Cc1nn(C2CCCCC2)c2nc(C(=O)NS(=O)(=O)C3CC3)cc(-c3ccc(N4CCOCC4)cc3)c12` [compound 239], at ΔF508-CFTR, the EC50 is 99.2 nM.

As to `CCS(=O)(=O)N(C)C(=O)c1cc(N2CCC(N3CCOCC3)CC2)c2c(C3CCC3)nn(-c3ccccc3)c2n1` [Compound 658, 3-cyclobutyl-N-(ethanesulfonyl)-N-methyl-4-[4-(morpholin-4-yl)piperidin-1-yl]-1-phenyl-1H-pyrazolo[3,4-b]pyridine-6-carboxamide], the activity at 3 µM on CFTR ΔF508 was found to be 260%.

As to `CC(C)N1CCN(C2CCN(c3cc(C(=O)NS(=O)(=O)N(C)C)nc4c3c(C3CCC3)nn4-c3ccc(F)cc3)CC2)CC1` [compound 382], the EC50 on CFTR ΔF508 was 100 nM.

On to `CC(C)c1nn(C2CCCCC2)c2nc(C(=O)NS(C)(=O)=O)cc(-c3ccc(N4CCC(F)(F)C4)nc3)c12` [compound 64], for which the EC50 at ΔF508-CFTR stood at 835 nM.

For `CN1CCN(Cc2cc(C(=O)NS(C)(=O)=O)nc3c2c(C2CCC2)nn3-c2ccc(F)cc2)CC1` [compound 518], the EC50 at ΔF508-CFTR came to 10000 nM.

Turning to `CN(C(=O)c1cc(N2CCC(N3CCOCC3)CC2)c2c(C3CCC3)nn(-c3ccccc3)c2n1)S(C)(=O)=O` [Compound 656, 3-cyclobutyl-N-(methanesulfonyl)-N-methyl-4-[4-(morpholin-4-yl)piperidin-1-yl]-1-phenyl-1H-pyrazolo[3,4-b]pyridine-6-carboxamide], at CFTR ΔF508, the activity at 3 µM stood at 198%.

Consider `COCC1CCN(c2cc(C(=O)N(C)S(C)(=O)=O)nc3c2c(C2CCC2)nn3-c2ccccc2)CC1` [Compound 657, 3-cyclobutyl-N-(methanesulfonyl)-4-[4-(methoxymethyl)piperidin-1-yl]-N-methyl-1-phenyl-1H-pyrazolo[3,4-b]pyridine-6-carboxamide], for which the activity at 3 µM on CFTR ΔF508 is 358%.

On to `CN(C)S(=O)(=O)NC(=O)c1cc(N2CCC(CN3CCOCC3)CC2)c2c(C3CCC3)nn(-c3ccc(F)cc3)c2n1` [compound 409], for which the “% Activation” value at ΔF508-CFTR is 272.74%.

As to `CS(=O)(=O)NC(=O)c1cc(N2CCC(CCN3CCOCC3)CC2)c2c(C3CCC3)nn(-c3ccccc3)c2n1` [Compound 331, 3-cyclobutyl-N-(methanesulfonyl)-4-{4-[2-(morpholin-4-yl)ethyl]piperidin-1-yl}-1-phenyl-1H-pyrazolo[3,4-b]pyridine-6-carboxamide], the activity at 1 µM at CFTR ΔF508 (setting [1]) came to 537%.

Turning to `CC(C)Oc1nn(C2CCCCC2)c2nc(C(=O)NS(C)(=O)=O)cc(-c3ccc(C(=O)N4CC5CNCC5C4)cc3)c12` (stereo not shown) [Compound 631, 1-cyclohexyl-4-[4-(hexahydropyrrolo[3,4-c]pyrrole-2(1H)-carbonyl)phenyl]-N-(methanesulfonyl)-3-[(propan-2-yl)oxy]-1H-pyrazolo[3,4-b]pyridine-6-carboxamide], the activity at 1 µM on CFTR ΔF508 (setting [1]) is 157%.

As for `O=C(NS(=O)(=O)N1CCOCC1)c1cc(N2CCC(CN3CCCC3)CC2)c2c(C3CCC3)nn(-c3ccccc3)c2n1` [Compound 380, 3-cyclobutyl-N-(morpholine-4-sulfonyl)-1-phenyl-4-{4-[(pyrrolidin-1-yl)methyl]piperidin-1-yl}-1H-pyrazolo[3,4-b]pyridine-6-carboxamide], the activity at 3 µM on CFTR ΔF508 is 250%.

In the case of `CS(=O)(=O)NC(=O)c1cc(-c2ccc(N3CCC(C#N)CC3)nc2)c2c(C3CCC3)nn(-c3ccccc3)c2n1` [Compound 71, 4-[6-(4-cyanopiperidin-1-yl)pyridin-3-yl]-3-cyclobutyl-N-(methanesulfonyl)-1-phenyl-H-pyrazolo[3,4-b]pyridine-6-carboxamide], the activity at 1 µM at CFTR ΔF508 (read-out: % Activity at 1 μM (Ieq*)) is 270%.

On to `CCS(=O)(=O)NC(=O)c1cc(-c2cnc(N(C)C)nc2)c2c(C3CN(C(=O)OC)C3)nn(C3CCCCC3)c2n1` [compound 52], for which the EC50 on ΔF508-CFTR is 11500 nM.

With `CCS(=O)(=O)NC(=O)c1cc(-c2ccc(OC)cc2)c2c(C)nn(-c3ccccc3)c2n1` [compound 15], the “% Activation” value on ΔF508-CFTR is reported as 151.675%.

As for `CS(=O)(=O)NC(=O)c1cc(N2CCC(N3CCCCC3)CC2)c2c(C3CCC3)nn(-c3ccccc3)c2n1` [Compound 365, 4-([1,4′-bipiperidin]-1′-yl)-3-cyclobutyl-N-(methanesulfonyl)-1-phenyl-1H-pyrazolo[3,4-b]pyridine-6-carboxamide], at CFTR ΔF508, the activity at 3 µM amounted to 522%.

Take `CN(C)S(=O)(=O)NC(=O)c1cc(OCC2CCOCC2)c2c(C3CCC3)nn(-c3ccccc3)c2n1` [compound 334]: the EC50 on CFTR ΔF508 came out at 100 nM.

Consider `COCC1CCN(c2cc(C(=O)NS(C)(=O)=O)nc3c2c(C2CCC2)nn3-c2ccccc2)CC1` [Compound 185, 3-cyclobutyl-N-(methanesulfonyl)-4-[4-(methoxymethyl)piperidin-1-yl]-1-phenyl-1H-pyrazolo[3,4-b]pyridine-6-carboxamide], for which, at CFTR ΔF508 (setting [1]), the activity at 1 µM turned out to be 453%.

As for `COCC1CCN(c2cc(C(=O)NS(=O)(=O)CCO)nc3c2c(C2CCC2)nn3-c2ccccc2)CC1` [Compound 366, 3-cyclobutyl-N-(2-hydroxyethanesulfonyl)-4-[4-(methoxymethyl)piperidin-1-yl]-1-phenyl-1H-pyrazolo[3,4-b]pyridine-6-carboxamide], the activity at 1 µM at CFTR ΔF508 (setting [1]) came out at 428%.

Source of the values: US20190202823A1, “N-SULFONYLATED PYRAZOLO[3,4-b]PYRIDIN-6-CARBOXAMIDES AND METHOD OF USE” (AbbVie S.à.r.l., priority 2015, published 2019).
